According to patent publication US5260271A, “Nisin compositions for use as enhanced broad range bactericides” (Applied Microbiology, Inc., priority 1992, dated 1993):

Tests used:
Listeria monocytogenes [1] = assay: Bactericidal activity towards Listeria monocytogenes in Tris buffer; assay type: cell-based; details: L. monocytogenes; pH 8.0, Nisin 0, EDTA 1.0 mM
Procedure: (§1) All tests in the following examples were performed at 37° C. The efficacy of the enhanced broad range bactericides was determined by assaying bactericidal activity as measured by the percent bacterial survival after treatment with the bactericide. Generally, after incubation of a 10^7 cell per ml suspension of target species with the novel bactericide for specified lengths of time, bacteria were collected by centrifugation for 2 minutes. […] Surviving bacteria were determined by scoring colony forming units (CFU) after incubation for 24-48 hours at 37° C. An effective bactericide according to this invention is one which allows less than 0.1% of the initial viable count of the bacteria to survive.
(§2) Incubations were performed in 20 mM TrisHCl, pH 8.0 at 37° C.

Streptococcus mutans = assay: Bactericidal activity and kinetics towards Streptococcus mutans in Tris buffer; assay type: cell-based; details: S. mutans, Nisin 0 with 1.0 mM EDTA, pH 7.3
Procedure: All tests in the following examples were performed at 37° C. The efficacy of the enhanced broad range bactericides was determined by assaying bactericidal activity as measured by the percent bacterial survival after treatment with the bactericide. Generally, after incubation of a 10^7 cell per ml suspension of target species with the novel bactericide for specified lengths of time, bacteria were collected by centrifugation for 2 minutes. The bacterial pellet was washed free of the bactericide with a rescue buffer, termed herein Phage buffer (50mM Tris-HCl buffer pH 7.8, 1 mM MgSO4, 4 mM CaCl2, 0.1 M Nacl, and 0.1% gelatin), resuspended and serially diluted into Phage buffer, and 100 μl of the suspended bacteria were spread on nutrient agar plates. Surviving bacteria were determined by scoring colony forming units (CFU) after incubation for 24-48 hours at 37° C.
The suspensions were incubated for various times ranging from 0.5 to 60 minutes with the bactericides.
Incubations were performed in 20 mM TrisHCl, pH 7.3 at 37° C.

S. typhimurium = assay: Bactericidal activity, percent bacterial survival of S. typhimurium suspension; assay type: cell-based, Salmonella typhimurium; details: for % Survival at 2 hours: S. typhimurium
Procedure: as §1, with “C.” for “C. An effective bactericide according to this invention is one which allows less than 0.1% of the initial viable count of the bacteria to survive.”
The control (Test #1) is identical to the control of Example 1 (Table 1).

Staphylococcus aureus = assay: Bactericidal activity towards Staphylococcus aureus, percent survival; assay type: cell-based; details: S. aureus
Procedure: as §1
Incubations were performed in 50 mM sodium acetate buffer, pH 5.0 or 20 m
TrisHCl buffer, pH 8.0 at 37° C.

K. pneumoniae = assay: Bactericidal activity, percent bacterial survival of K. pneumoniae suspension; assay type: cell-based, Klebsiella pneumoniae; details: Nisin 0, EDTA 20 mM, 20 mM Tris pH 8.0
Procedure: as §1, with “C.” for “C. An effective bactericide according to this invention is one which allows less than 0.1% of the initial viable count of the bacteria to survive.”
The effect was measured as a function of percentage bacterial survival after 2 hours.

[2] = tested on: S. typhimurium on chicken muscle; assay: Bactericidal activity towards S. typhimurium on chicken muscle (unadhered cells); assay type: cell-based, Salmonella typhimurium
Procedure: Incubations were performed in either 50 mM sodium acetate, pH 5.0, or 20 mM Tris, pH 8.0 at 37° C.
Cubes of chicken muscle were cleansed with sodium hypochlorite and povidone iodine prior to use. To inoculate the tissue, the cubes of chicken muscle were dipped into a 10^8 cells/ml suspension of S. typhimurium in 20 mM Tris HCl, pH 8.0. Excess moisture was removed from dipped cubes by tapping. The chicken samples were placed into sufficient buffer containing the nisin composition to cover the tissue and incubated for 2 hours at 37° C. after which the tissue was removed to sufficient Phage buffer to cover the tissue. The bacteria remaining in the test solution were collected by centrifugation, washed with Phage buffer, and combined with bacteria washed from the tissue by Phage buffer. The combined samples (termed "unadhered" cells) were serially diluted and 100 μl aliquots were plated for determination of surviving bacteria.
(§3) Cubes of chicken muscle were cleansed with sodium hypochlorite and povidone iodine prior to use. To inoculate the tissue, the cubes of chicken muscle were dipped into a 10^8 cells/ml suspension of S. typhimurium in 20 mM Tris HCl, pH 8.0. Excess moisture was removed from dipped cubes by tapping. The tissue was placed into sufficient buffer containing the nisin compositions to cover the tissue, and incubated for 2 hours at 37° C. after which the tissue was removed to sufficient Phage buffer to cover the tissue. The bacteria remaining in the test solution were collected by centrifugation, washed with Phage buffer, and combined with bacteria washed from the tissue by Phage buffer. The combined samples (termed "unadhered" cells) were serially diluted and 100 μl aliquots were plated for determination of surviving bacteria.
as §3, with “cleaned” for “cleansed”, “50” for “20”, “sodium acetate buffer,” for “Tris HCl,”, “5.0.” for “8.0.”, “containing” for “containing the”

Coryneform bacteria = assay: Bactericidal activity towards Coryneform bacteria; assay type: cell-based
Procedure: as §1, §2

E. coli = assay: Bactericidal activity, percent bacterial survival of E. coli suspension; assay type: cell-based, Escherichia coli; details: for Percentage E. coli Survival at 2 hours: 20 mM Tris pH 8.0
Procedure: as §1, with “C.” for “C. An effective bactericide according to this invention is one which allows less than 0.1% of the initial viable count of the bacteria to survive.”
The effects of the bactericide were measured as a function of percentage bacteria survival after 2 hours.
Incubations were performed in 20 mM Tris, […] at 37° C.

Listeria monocytogenes [3] = assay: Bactericidal activity towards Listeria monocytogenes in milk; assay type: cell-based; details: for % Survival 2 hr: L. monocytogenes in milk at 37° C.
Procedure: as §1
An example of where the application of nisin is limited by its available activity is illustrated by the data in Table 15B.
(§4) Incubations were in milk at 37° C.

Streptococcus agalactiae = assay: Bactericidal activity towards Streptococcus agalactiae in milk; assay type: cell-based; details: for % survival at 2h: S. agalactiae in milk at 37° C.
Procedure: as §1
However, the combination of the two agents, 0.1% monolaurin and nisin 0.2 μg/ml, is extremely potent towards S. agalactiae. […] Thus, when the application of nisin is limited by its available activity, a bactericide comprising nisin with a surfactant can be expected to be more useful.
as §4

O=C(O)CN(CCN(CC(=O)O)CC(=O)O)CC(=O)O [EDTA]
% Survival after 2 hr (Listeria monocytogenes [1]): 84%
% Survival (Streptococcus mutans; incubation 3 min): 100%
% Survival (Streptococcus mutans; incubation 60 min): 100%
Percentage S. typhimurium Survival at 3 hours (S. typhimurium; Nisin 0, EDTA 20 mM, 20 mM Tris pH 8.0, 37° C): 2.5%
% Survival at 2 hours (S. typhimurium; Nisin 0, EDTA 1.0 mM, BSA 1.0%, 20 mM Tris pH 8.0): 63%
% Survival at 2 hours (S. typhimurium; pH 5.0 (50 mM sodium acetate), Nisin 0, EDTA 2.0 mM): 38.7%
% Survival at 2 hours (S. typhimurium; pH 5.0, Nisin 0, EDTA 10 mM): 15.2%
% Survival at 2 hours (S. typhimurium; pH 5.0, Nisin 0, EDTA 50 mM): 3.5%
% Survival at 2 hours (S. typhimurium; pH 8.0 (20 mM Tris), Nisin 0, EDTA 2.0 mM): 8.7%
% Survival at 2 hours (S. typhimurium; pH 8.0, Nisin 0, EDTA 10 mM): 14%
% Survival at 2 hours (S. typhimurium; pH 8.0, Nisin 0, EDTA 50 mM): 11.4%
% Survival at 2 hours (S. typhimurium; pH 8.0, Nisin 0, EDTA 100 mM): 45%
Percentage S. typhimurium Survival at 3 hours (S. typhimurium; Table 3: Nisin 0, EDTA 20 mM, Tween20 0%, 20 mM Tris pH 8.0): 2.5%
% Survival 2 hr (Staphylococcus aureus; pH 5.0, Nisin 0, EDTA 3.0 mM): 100%
% Survival 2 hr (Staphylococcus aureus; pH 8.0, Nisin 0, EDTA 0.3 mM): 100%
% Survival 2 hr (Staphylococcus aureus; pH 8.0, Nisin 0, EDTA 1.0 mM): 81%
% Survival 2 hr (Staphylococcus aureus; pH 8.0, Nisin 0, EDTA 3.0 mM): 100%
% Survival 2 hr (Staphylococcus aureus; pH 8.0, Nisin 0, EDTA 10 mM): 100%
% Survival 2 hr (Staphylococcus aureus; pH 8.0, Nisin 0, EDTA 30 mM): 100%
% Survival at 2 hours (K. pneumoniae): 22%
% Survival at 2 hours ([2]; Table 9, chicken muscle, pH 8.0, Nisin 0, EDTA 1.0 mM, BSA 1.0%): 27%
% Survival at 2 hours (Unadhered cells) ([2]; Table 10, chicken muscle, Nisin 0, EDTA 10 mM, Methyl Paraben 0%, 50 mM Na acetate buffer, pH 5.0): 11.8%
% Survival at 2 hours (Unadhered cells) ([2]; chicken muscle, pH 5.0, Nisin 0, EDTA 10 mM): 6.4%
% Survival at 2 hours (Unadhered cells) ([2]; chicken muscle, pH 8.0, Nisin 0, EDTA 10 mM): 5.2%
% Survival 2 hr (Coryneform bacteria; pH 8.0, Nisin 0, EDTA 0.3 mM): 4.6%
% Survival 2 hr (Coryneform bacteria; pH 8.0, Nisin 0, EDTA 1.0 mM): 3.6%
% Survival 2 hr (Coryneform bacteria; pH 8.0, Nisin 0, EDTA 3.0 mM): 8%
% Survival 2 hr (Coryneform bacteria; pH 8.0, Nisin 0, EDTA 10 mM): 36%
% survival at 1 min. (E. coli; E. coli, Nisin 0, 1.0 mM EDTA, 20 mM Tris pH 7.0): 100%
Percentage E. coli Survival at 2 hours (E. coli; Nisin 0, EDTA 20 mM, Triton X-100 0%): 14.5%

monooleate
% Survival 2 hr (Listeria monocytogenes [3]; Nisin 0, Monooleate 0.1%): 67%
% Survival 2 hr (Listeria monocytogenes [3]; Nisin 0, Monooleate 1.0%): 63%
bactericidal activity towards L. monocytogenes (Listeria monocytogenes [3]; monooleate by itself, in milk): no bactericidal activity

CCCCCCCCCCCC(=O)OCC(O)CO (centres unmarked) [Monolaurin, monolaurin]
% survival at 2h (Streptococcus agalactiae; Nisin 0, Monolaurin 0.01%): 100%
% survival at 2h (Streptococcus agalactiae; Nisin 0, Monolaurin 0.1%): 4.5%
bactericidal activity towards Streptococcus agalactiae (Streptococcus agalactiae; monolaurin at concentrations up to 0.1%, in milk): little significant bactericidal activity

Triton X-100
Percentage E. coli Survival at 2 hours (E. coli; Nisin 0, EDTA 0 mM, Triton X-100 1.0%): 100%
bactericidal activity towards E. coli (E. coli; Triton X-100 alone, tests #3 and #4 of Table 4): no significant bactericidal activity
